Results published in patent publication US12465610B2, “Compounds and methods for the treatment of PKR-associated diseases” (Board of Regents, The University of Texas System, priority 2019, dated 2025).

Key:
[1] = test system: HeLa cells; assay: SRB cell viability assay; type: cell-based, human; conditions: 72 hours after treatment
Protocol: (§1) Anticancer effects of PKR-targeting compounds depend on PKR expression status: To identify compounds that can target lysosomes in PKR-positive cells or MVBs/exosomes in PKR-negative cells, the 10,000-compound ChemBridge library was screened for compounds with different effects on the growth of HeLa and HeLaPKRkd cells. […] SRB assays were next used to determine cell viability after treatment with Pac 1 or Pac 2.
(§2) Cell viability assays: For SRB assays, cells (2-8×10^3/well in 100 μL of culture medium) were seeded in 96-well flat-bottomed plates and treated the next day with compounds at the indicated concentrations. After the indicated treatments, cells were fixed with trichloroacetic acid. The protein was stained with SRB, and the optical density at 570 nm was determined. Relative cell viability was calculated by setting the viability rate of the control cells (exposed only to dimethyl sulfoxide) at 100% and comparing the viability of the treated cells with that of the controls. The experiments were performed at least three times for each cell line. The viability of leukemia cell lines was determined by using a 3-(4,5-dimethylthiazol-2-yl)-2,5-diphenyltetrazolium bromide assay.
(§3) Identification of PKR-associated compounds and cytotoxicity studies: The library of 10,000 compounds was screened for those with different effects on the growth of HeLa and HeLaPKRkd cells. […] Treated cells were observed under a microscope to detect morphologic changes, and their viability was determined using SRB assays 2 and 3 days after treatment. […]
(§4) For the SRB assay, cells (2-8×10^3/well in 100 μL of culture medium) were seeded in 96-well flat-bottomed plates and treated the next day with compounds at the indicated concentrations. […] The cells were stained using SRB, and the optical density at 570 nm was determined. Relative cell viability was determined by setting the viability of the control cells (exposed only to dimethyl sulfoxide) at 100% and comparing their viability with that of the treated cells. […]

[2] = test system: HeLaPKRkd cells; assay: SRB cell viability assay; type: cell-based, human; conditions: 72 hours after treatment
Protocol: as §1, §2, §3, §4

[3] = Toxicity in mice; conditions: 50 mg/kg intravenously daily for 7 days
[4] = test system: normal cells (HBE, human mammary epithelial cells); assay: SRB cell viability assay, normal cells; type: cell-based; conditions: 72 hours after treatment, HBE and human mammary epithelial cells
Protocol: The effects of Pac 1 and Pac 2 were next examined on PKR protein expression in HeLa cells using Western blot analysis. […] No reduction in normal cell viability was observed after treatment with Pac 1 or Pac 2 (FIGS. 5F and G). […] Because most of the cancer cell lines that were tested were more sensitive to Pac 1 than to Pac 2, Pac 1 was further investigated.
as §2
For the SRB assay, cells (2-8×10^3/well in 100 μL of culture medium) were seeded in 96-well flat-bottomed plates and treated the next day with compounds at the indicated concentrations. […] The cells were stained using SRB, and the optical density at 570 nm was determined. […]

[5] = test system: lysosomes and MVBs/exosomes; assay: Transmission electron microscopy (TEM) of treated cells; type: cell-based, human
[6] = test system: HeLaPKRkd cells; assay: Microscopic analysis of morphologic changes; type: cell-based, human
Text: as §1
Identification of PKR-associated compounds and cytotoxicity studies: The library of 10,000 compounds was screened for those with different effects on the growth of HeLa and HeLaPKRkd cells. For this screening, both HeLa and HeLaPKRkd cells were seeded in 96-well plates in parallel and treated with each compound at a final concentration of 5 μg/mL. Cells treated with dimethyl sulfoxide (final concentration, 1%) were used as controls. Treated cells were observed under a microscope to detect morphologic changes, and their viability was determined using SRB assays 2 and 3 days after treatment. The compounds initially observed to have different effects on HeLa and HeLaPKRkd cells were subjected to two confirmatory screenings.

[7] = test system: AP-1/2/3 complexes; assay: Western blot of AP-1, AP-2 and AP-3 complex-associated proteins; type: cell-based, human; conditions: H1299 and MDA-MB-231 cells, 72 hours after treatment
Text: Western blotting was next used to evaluate proteins known to be involved in AP-1/2/3 complexes in lung (H1299) and breast (MDA-MB-231) cancer cells after treatment with Pac 1 or Pac 2. […] AP-1 and AP-2 mediate protein sorting in the endosome, trans-Golgi network, and plasma membrane. […] The impact of Pac 1 was then investigated on lysosome function by staining cells with the acidophilic dye LysoTracker Red.

[8] = test system: prion degradation; type: cell-based, human; conditions: HeLa cells, Ad-Prion 48 hours, 1 mM

Compound	viability of HeLa cells [1]	viability of HeLaPKRkd cells [2]	blood chemistry: aspartate aminotransferase, SGOT, SGPT, alkaline phosphatase, creatine kinase, lactate dehydrogenase levels [3]	histopathologic examination of major organs ([3]; heart, lungs, liver, kidneys, pancreas, spleen)	normal cell viability [4]	lysosomal exocytosis by TEM ([5]; HeLa cells)	lysosomes and MVBs/exosomes by TEM ([5]; HeLaPKRkd cells)	growth of HeLaPKRkd cells by microscopy [6]	expression of proteins associated with AP-1 (Rab7α, HSC70, AP-1γ) or AP-2 (AP-2α) [7]	prion degradation [8]
Fc1ccc(Nc2nc(N/N=C/c3ccc4c(c3)OCO4)nc(N3CCOCC3)n2)cc1 [Pac 2, 1,3-benzodioxole-5-carbaldehyde [4-[(4-fluorophenyl)amino]-6-(4-morpholinyl)-1,3,5-triazin-2-yl]hydrazine]	not sensitive	suppressed more effectively by Pac 2	normal	no significant changes in any major organs	No reduction	induced lysosomal exocytosis	destroyed MVBs/exosomes	suppressed the growth of HeLaPKRkd cells more effectively than did Pac 1	No reduction of expression	–
Cn1cnc(N)c2ncnc1-2 [Pac 3MA, 3-methyladenine]	–	–	–	–	–	–	–	–	–	prevented prion degradation
